In series [1] the target is T1, recombinant human transglutaminase 2 (Homo sapiens, UniProt P21980).
T1 construct: purchased Zedira T022
T1 sequence (P21980 1-687): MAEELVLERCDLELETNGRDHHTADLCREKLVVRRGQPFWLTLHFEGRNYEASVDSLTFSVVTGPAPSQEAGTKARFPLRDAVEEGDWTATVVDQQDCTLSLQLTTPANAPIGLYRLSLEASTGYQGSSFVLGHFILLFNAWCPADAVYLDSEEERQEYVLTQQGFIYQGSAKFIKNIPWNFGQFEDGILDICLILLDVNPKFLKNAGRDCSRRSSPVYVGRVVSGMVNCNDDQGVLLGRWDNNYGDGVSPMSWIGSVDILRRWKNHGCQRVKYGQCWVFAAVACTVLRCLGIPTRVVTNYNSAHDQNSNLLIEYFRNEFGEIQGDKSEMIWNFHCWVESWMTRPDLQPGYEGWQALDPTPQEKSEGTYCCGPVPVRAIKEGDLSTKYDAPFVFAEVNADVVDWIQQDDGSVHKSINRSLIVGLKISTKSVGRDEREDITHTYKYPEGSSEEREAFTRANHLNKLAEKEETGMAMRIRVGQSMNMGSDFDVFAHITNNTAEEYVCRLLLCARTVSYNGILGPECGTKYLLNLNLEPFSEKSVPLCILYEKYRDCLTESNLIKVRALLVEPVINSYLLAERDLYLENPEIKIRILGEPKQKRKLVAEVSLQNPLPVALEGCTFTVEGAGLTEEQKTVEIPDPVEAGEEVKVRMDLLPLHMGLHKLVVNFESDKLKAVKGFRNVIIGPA
Briefly: Transglutaminase assay (dansylcadaverine incorporation into dimethylcasein, DCC-assay). The format is biochemical. As to conditions: recombinant human TG2 10 nM, dansylcadaverine/dimethylcasein, 37° C. In outline:
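IC50 derived from fluorescence slope between 20 and 30 min (λex 330 nm, λem 500 nm, 37 °C), expressed relative to a 2% DMSO control. Reaction: 10 nM recombinant human TG2, 4 μM dimethylcasein, 16.7 μM dansylcadaverine, 10 mM CaCl2 and glutathione, pH 8.0.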

Series [2] is described as follows: Caco-2 permeability assay (CacoReady kit). It is filed as in vitro ADME. As to conditions: human. The gist of the method: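 Caco-2 monolayer barrier, commercial ready-to-use kit, manufacturer protocol. Read-out: Papp.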
Background: Caco-2 cells form a polarised layer with tight junctions and transporters.

Series [3] is described as follows: Log D shake flask method (octanol / PBS pH 7.4, HPLC). The format is physicochemical. As to conditions: octanol/phosphate-buffered saline (PBS); octanol / PBS pH 7.4, shake flask. As for the experimental part:
In order to classify the inventive compounds according to their lipophilicity, Log D values (distribution coefficient) were determined by means of the well-established shake flask method, measuring the partition of a compound between an octanol and phosphate-buffered saline (PBS, pH 7.4) by HPLC.

In the case of `COC(=O)/C=C/CC[C@H](NC(=O)c1cncn1C)C(=O)Nc1cccn(CC(=O)N[C@H]2C[C@H]3CC[C@]2(C)C3(C)C)c1=O` [III-60, (S,E)-methyl 6-(1-methyl-1H-imidazole-5-carboxamido)-7-oxo-7-(2-oxo-1-(2-oxo-2-((1R,2S,4R)-1,7,7-trimethylbicyclo[2.2.1]heptan-2-ylamino)ethyl)-1,2-dihydropyridin-3-ylamino)hept-2-enoate], in series [1], the IC50 – broadly, the concentration at which inhibition is half-maximal – is less than 25 nM. Moreover, in series [2], the Papp (usually the rate of passage across a membrane or cell layer, normalised by area and donor concentration) was less than 1 ×10⁻⁶ cm/s. The logD (commonly lipophilicity at a set pH, counting ionised and neutral species) in series [3] fell in the range of 3 to 5.
As for `COC(=O)/C=C/CC[C@H](NC(=O)c1oc2ccccc2c1C)C(=O)Nc1cccn(CC(=O)N[C@H]2C[C@H]3CC[C@]2(C)C3(C)C)c1=O` [III-61, (S,E)-methyl 6-(3-methylbenzofuran-2-carboxamido)-7-oxo-7-(2-oxo-1-(2-oxo-2-((1R,2S,4R)-1,7,7-trimethylbicyclo[2.2.1]heptan-2-ylamino)ethyl)-1,2-dihydropyridin-3-ylamino)hept-2-enoate], the concentration for half-maximal inhibition (IC50) in series [1] is 25 to 250 nM. The same molecule had a Papp in series [2] of 1 to 10 ×10⁻⁶ cm/s. The logD in series [3] fell in the range of 3 to 5.
For `COC(=O)/C=C/CC[C@H](NC(=O)c1cncn1C)C(=O)Nc1cccn(CC(=O)N[C@@H]2C[C@H]3CC[C@@H]2C3)c1=O` [III-62, (S,E)-methyl 7-(1-(2-((1R,2R,4S)-bicyclo[2.2.1]heptan-2-ylamino)-2-oxoethyl)-2-oxo-1,2-dihydropyridin-3-ylamino)-6-(1-methyl-1H-imidazole-5-carboxamido)-7-oxohept-2-enoate] the same measures were less than 25 nM, less than 1 ×10⁻⁶ cm/s and 1 to 3.
For `COC(=O)/C=C/CC[C@H](NC(=O)c1oc2ccccc2c1C)C(=O)Nc1cccn(CC(=O)N[C@@H]2C[C@H]3CC[C@@H]2C3)c1=O` [III-63, (S,E)-methyl 7-(1-(2-((1R,2R,4S)-bicyclo[2.2.1]heptan-2-ylamino)-2-oxoethyl)-2-oxo-1,2-dihydropyridin-3-ylamino)-6-(3-methylbenzofuran-2-carboxamido)-7-oxohept-2-enoate], in that order: less than 25 nM, 1 to 10 ×10⁻⁶ cm/s and 3 to 5.
For `COC(=O)/C=C/CC[C@H](NC(=O)c1oc2ccccc2c1C)C(=O)Nc1cccn(CC(=O)NC23CCC(CC2)C3)c1=O` [III-64, (S,E)-methyl 7-(1-(2-(bicyclo[2.2.1]heptan-1-ylamino)-2-oxoethyl)-2-oxo-1,2-dihydropyridin-3-ylamino)-6-(3-methylbenzofuran-2-carboxamido)-7-oxohept-2-enoate], in series [1], the IC50 is less than 25 nM. The same molecule yielded an apparent permeability coefficient (Papp) in series [2] of 1 to 10 ×10⁻⁶ cm/s. For the same molecule, in series [3], the logD lay in the range of 1 to 3.
For `COC(=O)/C=C/CC[C@H](NC(=O)c1oc2ccccc2c1C)C(=O)Nc1cccn(CC(=O)NC2C3CCC2CC3)c1=O` (stereo partly drawn) [III-65, (S,E)-methyl 7-(1-(2-(bicyclo[2.2.1]heptan-7-ylamino)-2-oxoethyl)-2-oxo-1,2-dihydropyridin-3-ylamino)-6-(3-methylbenzofuran-2-carboxamido)-7-oxohept-2-enoate], in that order: less than 25 nM, 1 to 10 ×10⁻⁶ cm/s and 3 to 5.
For `COC(=O)/C=C/CC[C@H](NC(=O)c1oc2ccccc2c1C)C(=O)Nc1cccn(CC(=O)NC2CC3C=CC2C3)c1=O` (stereo partly drawn) [III-66, (S,E)-methyl 7-(1-(2-(bicyclo[2.2.1]hept-5-en-2-ylamino)-2-oxoethyl)-2-oxo-1,2-dihydropyridin-3-ylamino)-6-(3-methylbenzofuran-2-carboxamido)-7-oxohept-2-enoate], in that order: 25 to 250 nM, 1 to 10 ×10⁻⁶ cm/s and 1 to 3.
`COC(=O)/C=C/CC[C@H](NC(=O)c1oc2ccccc2c1C)C(=O)Nc1cccn(CC(=O)NC2CC3CCC2CC3)c1=O` (stereo partly drawn) [III-67, (6S,E)-methyl 7-(1-(2-(bicyclo[2.2.2]octan-2-ylamino)-2-oxoethyl)-2-oxo-1,2-dihydropyridin-3-ylamino)-6-(3-methylbenzofuran-2-carboxamido)-7-oxohept-2-enoate]: the IC50 in series [1] is less than 25 nM. In series [2], the Papp is 1 to 10 ×10⁻⁶ cm/s. Moreover, the logD in series [3] lay in the range of 3 to 5.
For `COC(=O)/C=C/CC[C@H](NC(=O)c1oc2ccccc2c1C)C(=O)Nc1cccn(CC(=O)N[C@@H]2C[C@H]3CC[C@]2(C)C3(C)C)c1=O` [III-68, (S,E)-methyl 6-(3-methylbenzofuran-2-carboxamido)-7-oxo-7-(2-oxo-1-(2-oxo-2-((1R,2R,4R)-1,7,7-trimethylbicyclo[2.2.1]heptan-2-ylamino)ethyl)-1,2-dihydropyridin-3-ylamino)hept-2-enoate] the same measures were less than 25 nM, 1 to 10 ×10⁻⁶ cm/s and 3 to 5.
For `COC(=O)/C=C/CC[C@H](NC(=O)c1oc2ccccc2c1C)C(=O)Nc1cccn(CC(=O)N[C@@H]2C[C@@H]3C[C@H]([C@H]2C)C3(C)C)c1=O` [III-69, (S,E)-methyl 6-(3-methylbenzofuran-2-carboxamido)-7-oxo-7-(2-oxo-1-(2-oxo-2-((1R,2R,3R,5S)-2,6,6-trimethylbicyclo[3.1.1]heptan-3-ylamino)ethyl)-1,2-dihydropyridin-3-ylamino)hept-2-enoate] the same measures were less than 25 nM, 1 to 10 ×10⁻⁶ cm/s and 3 to 5.
As to `COC(=O)/C=C/CC[C@H](NC(=O)c1oc2ccccc2c1C)C(=O)Nc1cccn(CC(=O)N[C@H]2C[C@H]3C[C@@H]([C@@H]2C)C3(C)C)c1=O` [III-70, (S,E)-methyl 6-(3-methylbenzofuran-2-carboxamido)-7-oxo-7-(2-oxo-1-(2-oxo-2-((1S,2S,3S,5R)-2,6,6-trimethylbicyclo[3.1.1]heptan-3-ylamino)ethyl)-1,2-dihydropyridin-3-ylamino)hept-2-enoate], the IC50 in series [1] was less than 25 nM. Besides, the Papp in series [2] was 1 to 10 ×10⁻⁶ cm/s. The logD in series [3] fell in the range of 3 to 5.
On to `COC(=O)/C=C/CC[C@H](NC(=O)c1oc2ccccc2c1C)C(=O)Nc1cccn(CC(=O)NC[C@@H]2CC[C@H]3C[C@@H]2C3(C)C)c1=O` [III-71, (S,E)-methyl 7-(1-(2-(((1S,2R,5S)-6,6-dimethylbicyclo[3.1.1]heptan-2-yl)methylamino)-2-oxoethyl)-2-oxo-1,2-dihydropyridin-3-ylamino)-6-(3-methylbenzofuran-2-carboxamido)-7-oxohept-2-enoate], for which the IC50 in series [1] lay in the range of 25 to 250 nM. In addition, the Papp in series [2] lay within 1 to 10 ×10⁻⁶ cm/s. Besides, in series [3], the logD was in the range of 3 to 5.
For `COC(=O)/C=C/CC[C@H](NC(=O)c1oc2ccccc2c1C)C(=O)Nc1cccn(CC(=O)NC23CCCC4CC(CCC42)C3)c1=O` (stereo partly drawn) [III-72, (S,E)-methyl 7-(1-(2-(4-homoisotwistane-3-amino)-2-oxoethyl)-2-oxo-1,2-dihydropyridin-3-ylamino)-6-(3-methylbenzofuran-2-carboxamido)-7-oxohept-2-enoate], in that order: 25 to 250 nM, 1 to 10 ×10⁻⁶ cm/s and 3 to 5.
For `COC(=O)/C=C/CC[C@H](NC(=O)c1oc2ccccc2c1C)C(=O)Nc1cccn(CC(=O)NC23CC4CC5C2C[C@@H]2C[C@H]5C(C4)[C@H]3C2)c1=O` [III-73, (S,E)-methyl 7-(1-(2-(diamantane-1-amino)-2-oxoethyl)-2-oxo-1,2-dihydropyridin-3-ylamino)-6-(3-methylbenzofuran-2-carboxamido)-7-oxohept-2-enoate], the IC50 in series [1] is less than 25 nM. In series [2], this molecule displayed a Papp of 1 to 10 ×10⁻⁶ cm/s. For the same molecule, in series [3], the log distribution coefficient (logD) is 3 to 5.

For the origin of these results see US20240317708A1, “INHIBITORS OF TRANSGLUTAMINASES” (ZEDIRA GMBH, priority 2021, published 2024).
